In publication PMC10038264, “A new family of glutamate-gated chloride channels in parasitic sea louse Caligus rogercresseyi: A subunit refractory to activation by ivermectin is dominant in heteromeric assemblies” (PLOS Pathogens, 2023):
Values joined by “and” are separate entries in the source; they are usually repeats but may differ in a detail not shown here. Equal values may be shown once. “Also recorded” adds a separate entry of the source. Read-outs that look alike come from different tables or passages of the source.

What was measured:
CrGluCl-A = CrGluCl-A (Caligus rogercresseyi, UniProt A0A1W6LZ70); experiment: Two-electrode voltage-clamp of Xenopus oocytes expressing CrGluCl-A; format: cell-based; settings: CrGluCl-A alone
CrGluCl-A, sequence (A0A1W6LZ70 entry or part of it): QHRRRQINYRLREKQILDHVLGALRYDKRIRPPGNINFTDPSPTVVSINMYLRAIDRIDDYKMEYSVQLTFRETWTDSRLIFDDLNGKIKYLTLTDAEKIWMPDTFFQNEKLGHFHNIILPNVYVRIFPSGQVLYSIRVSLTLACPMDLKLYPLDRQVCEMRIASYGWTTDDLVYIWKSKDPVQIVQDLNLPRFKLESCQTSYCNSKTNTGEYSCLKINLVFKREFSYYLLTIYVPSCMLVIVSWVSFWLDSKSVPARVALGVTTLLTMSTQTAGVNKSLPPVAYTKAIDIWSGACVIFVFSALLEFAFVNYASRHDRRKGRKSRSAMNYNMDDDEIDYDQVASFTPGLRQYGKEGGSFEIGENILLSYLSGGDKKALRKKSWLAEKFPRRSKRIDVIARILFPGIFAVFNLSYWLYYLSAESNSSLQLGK
Description: (§1) Adult female Xenopus laevis frogs were anaesthetized by immersion in a1g/L solution tricaine (Ethyl 3-aminobenzoate methanesulfonate, Sigma) buffered to pH 7 with NaHCO3. Surgery was performed 30–40 min later, once the frog was completely anaesthetized judging by loss of reflexes. Ovarian lobes were removed through 1 cm abdominal incision and then kept at 16°C in Barth’s modified solution containing (in mM): 88 NaCl, 1 KCl, 0.4 CaCl2, 0.3 Ca (NO3)2, 0.8 MgSO4, 2.4 NaHCO3, 5 Hepes, 2.5 sodium pyruvate, 100 μg/ml gentamicin sulfate, 100 U/ml penicillin, 100 μg/ml streptomycin, 250 μg/ml amphotericin B, 0.22μm filtered and adjusted to pH 7.5 with Tris-Base. Osmolarity was brought to 220 mOsm with saccharose. The oocytes were manually defolliculated on the same day of extraction and the following day 20 ng cRNA in nuclease-free water was injected into stage V-VI oocytes using a FemtoJet microinjector (Eppendorf). Finally, the injected oocytes were stored in 96 well plates containing Barth’s modified solution and kept at 16°C until experiment day.
Current measurements at controlled membrane potentials (voltage-clamp experiments) were performed using two intracellular microelectrodes in defolliculated Xenopus oocytes previously microinjected with 20 ng of cRNA. Voltage-clamp recording was performed at room temperature using a TURBO TEC-10CX amplifier (npi electronic GmbH, Tamm, Germany) and PClamp 10.6 software (Axon Instruments, USA), 1 to 4 days after oocyte injection. The oocytes were recorded in a chamber (Model RC-1Z, Warner Instrumenst, USA) under continuous superfusion. […] Reference was an Ag-AgCl electrode connected to the bath via a 3 M KCl in 3% agar bridge. Currents were recorded continuously during the experiments without interruptions for solution changes. […] The signal filtered at 1 kHz was acquired with a Digidata 1440A Analog-to-Digital Converter and analyzed with Axon pClamp 10.6 software. […]

AgGluCl = tested on: AgGluCl; design: method as in PMID 7935817, PMID 8702744, PMID 25994631; settings: read-out: EC50 glutamate; cited from earlier work
CrGluCl-B = experiment: Two-electrode voltage-clamp of Xenopus oocytes expressing CrGluCl-B; format: cell-based, Caligus rogercresseyi; settings: for activation by ivermectin (EC50 Ivermectin column): CrGluCl-B WT alone, 1-3 μM ivermectin
Description: as §1
Current measurements at controlled membrane potentials (voltage-clamp experiments) were performed using two intracellular microelectrodes in defolliculated Xenopus oocytes previously microinjected with 20 ng of cRNA. Voltage-clamp recording was performed at room temperature using a TURBO TEC-10CX amplifier (npi electronic GmbH, Tamm, Germany) and PClamp 10.6 software (Axon Instruments, USA), 1 to 4 days after oocyte injection. The oocytes were recorded in a chamber (Model RC-1Z, Warner Instrumenst, USA) under continuous superfusion. […] Reference was an Ag-AgCl electrode connected to the bath via a 3 M KCl in 3% agar bridge. Currents were recorded continuously during the experiments without interruptions for solution changes. Oocytes were held at -30 mV and a voltage protocol consisting of a voltage drop to -100 mV for 25ms followed by a 360 ms ramp from -100 mV to 60mV applied with a period of 565 ms was continuously given. The signal filtered at 1 kHz was acquired with a Digidata 1440A Analog-to-Digital Converter and analyzed with Axon pClamp 10.6 software. The solution that bathed the oocytes during the electrophysiological recordings had the following composition (mM): 115 NaCl, 2 KCl, 1.8 CaCl2, 1 MgCl2, 10 HEPES pH 7.5 obtained with NaOH. For the low chloride solution, all the NaCl was replaced with the gluconate salt of Na. This decreases chloride concentration from 122.6 to 7.6 mM while increasing that of gluconate from 0 to 115 mM. The stock solutions of the drugs in dimethyl sulfoxide (DMSO) were: 10 mM emamectin, 10 mM ivermectin, 100 mM picrotoxin. These were diluted in bath solution to obtain final concentrations.
The currents were normalized according to the extrapolated maximum current delivered by the Hill adjustment. In this way, the concentration that generates 50% of the maximum effect (EC50) and the Hill coefficient (nH) for each situation were obtained.

[1] = tested on: CrGluCl-B Q279E-Y361F mutant; experiment: Voltage-clamp of oocytes expressing CrGluCl-B Q279E-Y361F double mutant; format: cell-based, Caligus rogercresseyi; settings: 1 μM ivermectin, one-sample t-test
Text: (§2) To identify putative GluCl subunits, we queried the NCBI Transcriptome Shotgun Assembly Sequence (TSA) Database for “glutamate-gated chloride channel Caligus”. The obtained sequences were translated and BLASTed (tBLASTn) against the C. rogercresseyi genome (WGS, BioProject ID 280098, NCBI) and against transcripts of L. salmonis database (https://licebase.org/). Primers for each of the putative new subunit found were designed to span the full length of the open reading frame (ORF) for each of them (B-E) (S1 Table, and arrows in Fig 1). Complete cDNAs were generated by RT-PCR from adult C. rogercresseyi samples from which putative full-length peptide sequences of CrGluCl-B, CrGluCl-C, CrGluCl-D and CrGluCl-E were obtained. Each PCR product was cloned in pGEM-T easy vector and sequenced. […]
(§3) Current measurements at controlled membrane potentials (voltage-clamp experiments) were performed using two intracellular microelectrodes in defolliculated Xenopus oocytes previously microinjected with 20 ng of cRNA. […] The oocytes were recorded in a chamber (Model RC-1Z, Warner Instrumenst, USA) under continuous superfusion. […] Currents were recorded continuously during the experiments without interruptions for solution changes. […] The signal filtered at 1 kHz was acquired with a Digidata 1440A Analog-to-Digital Converter and analyzed with Axon pClamp 10.6 software. […]

[2] = tested on: coexpressed CrGluCl-D:CrGluCl-C; experiment: Voltage-clamp of oocytes coinjected with CrGluCl-D and CrGluCl-C; format: cell-based, Caligus rogercresseyi; settings: D:C ratio 1:1
Description: as §1, with “The oocytes were manually defolliculated on the same day of extraction and the following day 20 ng cRNA in nuclease-free water was injected into stage V-VI oocytes using a FemtoJet microinjector (Eppendorf). Finally, the injected oocytes were stored in 96 well plates containing Barth’s modified solution and kept at 16°C until experiment day.” left out
as §3

CrGluCl-B M340T mutant = experiment: Voltage-clamp of oocytes expressing CrGluCl-B M340T mutant; format: cell-based, Caligus rogercresseyi; settings: 1 μM ivermectin
Text: as §2, §3

Compound | nH (glutamate) (CrGluCl-A; 60 mV) | EC50 (CrGluCl-A; EC50 Glutamate, currents at 60 mV, Hill fit) [µM] | EC50 (AgGluCl) [µM] | current evoked by glutamate after ivermectin treatment (CrGluCl-B; 1 mM glutamate after 1 μM ivermectin, CrGluCl-B) [μA] | activation by ivermectin (EC50 Ivermectin column) (CrGluCl-B) | activation by ivermectin (EC50 Ivermectin column) (CrGluCl-B; listed as Ivermectin) | nH (ivermectin inhibition) (CrGluCl-B; CrGluCl-B, 3 mM glutamate) | IC50 (CrGluCl-B; CrGluCl-B, as restated in discussion, read-out: IC50 ivermectin inhibition of glutamate-activated current) [µM] | IC50 (CrGluCl-B; CrGluCl-B, continuous 3 mM glutamate, read-out: IC50 ivermectin antagonism of glutamate-elicited current) [µM] | effect of ivermectin on current [1] | Iver response to activation [2] | effect of ivermectin on current (CrGluCl-B M340T mutant)
N[C@@H](CCC(=O)O)C(=O)O [glutamate, L-glutamate] | 1.65 ± 0.63 | 7.2 ± 2.7 | 30 | – | – | – | – | – | – | – | – | –
ivermectin | – | – | – | 1.70 ± 1.69 | without effect | no effect; also recorded: Insensitive | -2.2 ± 0.5 and -2.2 | 0.34 | 0.342 ± 0.114 | small but significant effects | Sensitive | no effect
